# Experiments:
# [1] = Terminal half life in CD1 mouse at 10 mg/kg, iv administered as single dose by LC/MS/MS analysis; assay type: ADME, organism-based; parameters: dose 10 mg/kg, route intravenous; settings: in vivo, read-out: beta t1/2 (converted)
# [2] = target: Serine/threonine-protein kinase Nek6 (Homo sapiens, UniProt Q9HC98); assay: Inhibition of NEK6
# [3] = Solubility of the compound at pH 7; assay type: physicochemical; settings: buffer
# [4] = Solubility of the compound at 105 Tween 80; assay type: physicochemical
# [5] = target: Serine/threonine-protein kinase PLK2 (Homo sapiens, UniProt Q9NYY3); assay: Inhibition of PLK2
# Sequence of Serine/threonine-protein kinase PLK2 (Q9NYY3 whole entry): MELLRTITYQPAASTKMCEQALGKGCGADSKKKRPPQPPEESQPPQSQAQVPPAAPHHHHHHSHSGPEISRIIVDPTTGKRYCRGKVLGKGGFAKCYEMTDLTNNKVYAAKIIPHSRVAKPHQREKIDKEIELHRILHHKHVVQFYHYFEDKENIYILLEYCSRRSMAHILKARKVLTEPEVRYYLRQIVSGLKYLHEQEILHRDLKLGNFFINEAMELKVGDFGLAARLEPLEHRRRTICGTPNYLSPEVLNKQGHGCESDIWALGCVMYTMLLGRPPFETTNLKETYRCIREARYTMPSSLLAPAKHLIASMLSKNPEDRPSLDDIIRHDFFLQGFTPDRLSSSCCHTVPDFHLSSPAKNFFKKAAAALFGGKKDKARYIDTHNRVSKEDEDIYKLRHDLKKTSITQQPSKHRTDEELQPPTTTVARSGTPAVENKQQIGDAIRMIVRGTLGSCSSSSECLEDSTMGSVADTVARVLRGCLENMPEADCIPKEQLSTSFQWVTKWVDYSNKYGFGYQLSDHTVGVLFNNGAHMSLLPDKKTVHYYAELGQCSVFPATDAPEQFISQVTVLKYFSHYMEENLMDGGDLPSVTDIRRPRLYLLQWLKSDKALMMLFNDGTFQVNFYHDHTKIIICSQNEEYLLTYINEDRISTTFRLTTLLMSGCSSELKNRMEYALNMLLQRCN
# [6] = target: T1, Receptor-type tyrosine-protein kinase FLT3 (Homo sapiens, UniProt P36888); assay: Inhibition of FLT3
# T1 sequence (P36888 whole entry): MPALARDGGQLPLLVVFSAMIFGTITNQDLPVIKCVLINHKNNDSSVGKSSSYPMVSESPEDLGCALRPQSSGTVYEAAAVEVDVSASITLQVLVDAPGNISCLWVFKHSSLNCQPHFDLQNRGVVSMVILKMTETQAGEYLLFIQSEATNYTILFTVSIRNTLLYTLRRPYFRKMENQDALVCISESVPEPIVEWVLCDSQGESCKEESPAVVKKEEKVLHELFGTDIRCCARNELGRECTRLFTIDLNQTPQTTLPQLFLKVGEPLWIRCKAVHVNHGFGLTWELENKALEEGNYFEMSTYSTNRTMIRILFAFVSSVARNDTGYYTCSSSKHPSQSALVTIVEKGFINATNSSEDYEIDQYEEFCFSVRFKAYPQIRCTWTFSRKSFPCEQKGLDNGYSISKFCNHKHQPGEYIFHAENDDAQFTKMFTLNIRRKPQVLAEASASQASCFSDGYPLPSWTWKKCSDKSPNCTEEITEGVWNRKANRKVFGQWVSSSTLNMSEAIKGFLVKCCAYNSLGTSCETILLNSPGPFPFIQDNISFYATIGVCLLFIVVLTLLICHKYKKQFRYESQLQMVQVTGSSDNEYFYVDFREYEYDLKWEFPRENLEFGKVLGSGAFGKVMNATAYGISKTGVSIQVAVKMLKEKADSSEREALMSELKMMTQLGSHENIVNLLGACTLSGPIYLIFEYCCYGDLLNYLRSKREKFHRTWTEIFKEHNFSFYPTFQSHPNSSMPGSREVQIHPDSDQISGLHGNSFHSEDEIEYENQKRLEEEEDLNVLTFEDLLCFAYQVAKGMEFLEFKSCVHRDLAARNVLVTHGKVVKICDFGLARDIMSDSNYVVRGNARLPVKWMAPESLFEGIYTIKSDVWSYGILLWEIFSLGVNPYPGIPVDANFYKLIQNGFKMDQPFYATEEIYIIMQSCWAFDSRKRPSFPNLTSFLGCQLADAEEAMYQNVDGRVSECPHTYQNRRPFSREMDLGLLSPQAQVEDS
# [7] = target: Serine/threonine-protein kinase PLK3 (Homo sapiens, UniProt Q9H4B4); assay: Inhibition of PLK3
# Sequence of Serine/threonine-protein kinase PLK3 (Q9H4B4 whole entry): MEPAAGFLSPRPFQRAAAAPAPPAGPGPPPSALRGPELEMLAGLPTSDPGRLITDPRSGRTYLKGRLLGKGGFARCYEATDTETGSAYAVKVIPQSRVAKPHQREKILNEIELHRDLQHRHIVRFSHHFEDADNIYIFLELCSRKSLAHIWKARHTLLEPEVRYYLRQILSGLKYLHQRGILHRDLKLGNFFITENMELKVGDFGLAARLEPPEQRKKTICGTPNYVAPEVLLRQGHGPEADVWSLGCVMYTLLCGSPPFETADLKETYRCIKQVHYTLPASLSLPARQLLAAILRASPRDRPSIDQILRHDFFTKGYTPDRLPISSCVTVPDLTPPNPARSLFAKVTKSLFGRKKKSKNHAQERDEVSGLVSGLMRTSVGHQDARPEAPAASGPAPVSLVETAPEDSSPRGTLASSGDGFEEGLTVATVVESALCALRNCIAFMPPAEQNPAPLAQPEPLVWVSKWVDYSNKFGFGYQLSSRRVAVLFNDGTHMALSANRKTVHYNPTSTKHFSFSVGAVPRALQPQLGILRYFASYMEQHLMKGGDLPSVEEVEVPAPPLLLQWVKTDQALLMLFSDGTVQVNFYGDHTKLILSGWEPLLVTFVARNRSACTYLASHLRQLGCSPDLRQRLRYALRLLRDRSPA
# [8] = Volume of distribution at steady state in CD1 mouse at 10 mg/kg, iv administered as single dose by LC/MS/MS analysis; assay type: ADME, organism-based; parameters: dose 10 mg/kg, route intravenous; settings: in vivo, read-out: Vdss
# A2780 = assay: cells; settings: Homo sapiens, A2780, 72 h
# [9] = Oral bioavailability in CD1 mouse at 10 mg/kg administered as single dose by LC/MS/MS analysis; assay type: ADME, organism-based; settings: in vivo
# [10] = Clearance in CD1 mouse at 10 mg/kg, iv administered as single dose by LC/MS/MS analysis; assay type: ADME, organism-based; parameters: dose 10 mg/kg, route intravenous; settings: in vivo
# [11] = target: ALK tyrosine kinase receptor (Homo sapiens, UniProt Q9UM73); assay: Inhibition of ALK
# Sequence of ALK tyrosine kinase receptor (Q9UM73 whole entry): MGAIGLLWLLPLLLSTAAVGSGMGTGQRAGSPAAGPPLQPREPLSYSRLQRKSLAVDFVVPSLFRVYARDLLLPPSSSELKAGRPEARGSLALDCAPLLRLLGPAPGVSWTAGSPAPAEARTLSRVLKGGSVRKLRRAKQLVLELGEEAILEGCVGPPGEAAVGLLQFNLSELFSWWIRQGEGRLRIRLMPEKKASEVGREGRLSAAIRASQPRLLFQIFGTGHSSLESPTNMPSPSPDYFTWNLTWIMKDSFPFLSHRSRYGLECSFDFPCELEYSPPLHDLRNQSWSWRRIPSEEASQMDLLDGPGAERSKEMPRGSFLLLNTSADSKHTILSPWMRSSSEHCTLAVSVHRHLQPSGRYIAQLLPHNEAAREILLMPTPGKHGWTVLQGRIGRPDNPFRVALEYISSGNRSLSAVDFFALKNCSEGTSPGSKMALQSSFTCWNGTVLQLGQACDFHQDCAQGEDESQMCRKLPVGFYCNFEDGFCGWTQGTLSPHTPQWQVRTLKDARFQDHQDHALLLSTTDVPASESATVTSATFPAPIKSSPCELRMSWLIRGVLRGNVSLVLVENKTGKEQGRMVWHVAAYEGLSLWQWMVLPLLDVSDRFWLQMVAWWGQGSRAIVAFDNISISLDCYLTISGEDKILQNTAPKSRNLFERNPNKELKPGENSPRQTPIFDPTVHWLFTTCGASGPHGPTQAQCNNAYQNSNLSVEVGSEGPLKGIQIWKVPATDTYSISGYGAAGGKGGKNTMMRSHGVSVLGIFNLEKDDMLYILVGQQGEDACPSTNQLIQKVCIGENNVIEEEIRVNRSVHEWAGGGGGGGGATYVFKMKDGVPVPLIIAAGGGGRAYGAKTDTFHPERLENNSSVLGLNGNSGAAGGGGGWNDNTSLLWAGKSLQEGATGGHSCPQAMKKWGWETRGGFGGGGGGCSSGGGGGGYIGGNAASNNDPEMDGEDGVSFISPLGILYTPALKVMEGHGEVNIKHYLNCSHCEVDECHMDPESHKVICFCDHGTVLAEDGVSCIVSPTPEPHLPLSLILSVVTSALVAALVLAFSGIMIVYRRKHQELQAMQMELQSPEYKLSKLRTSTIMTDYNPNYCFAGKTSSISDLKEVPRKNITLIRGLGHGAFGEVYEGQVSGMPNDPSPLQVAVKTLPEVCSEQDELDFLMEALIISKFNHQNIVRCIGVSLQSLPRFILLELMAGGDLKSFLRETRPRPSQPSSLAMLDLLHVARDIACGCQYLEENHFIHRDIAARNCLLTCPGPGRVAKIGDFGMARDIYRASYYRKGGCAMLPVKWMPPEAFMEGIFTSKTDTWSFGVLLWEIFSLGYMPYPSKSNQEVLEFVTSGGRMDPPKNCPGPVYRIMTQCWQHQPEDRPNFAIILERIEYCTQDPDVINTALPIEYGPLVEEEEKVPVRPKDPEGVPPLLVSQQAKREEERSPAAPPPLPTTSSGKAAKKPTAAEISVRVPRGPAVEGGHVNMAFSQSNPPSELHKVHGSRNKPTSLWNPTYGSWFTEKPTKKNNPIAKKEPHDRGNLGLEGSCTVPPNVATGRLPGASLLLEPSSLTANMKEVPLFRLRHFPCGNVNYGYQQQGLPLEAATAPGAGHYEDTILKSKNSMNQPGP
# [12] = AUC (0 to infinity) in CD1 mouse at 10 mg/kg, iv administered as single dose by LC/MS/MS analysis; assay type: ADME, organism-based; parameters: time infinity, dose 10 mg/kg, route intravenous; settings: plasma
# [13] = Intrinsic clearance in human liver microsomes; assay type: ADME, Microsome
# [14] = target: Serine/threonine-protein kinase PLK1 (Homo sapiens, UniProt P53350)
# Sequence of Serine/threonine-protein kinase PLK1 (P53350 whole entry): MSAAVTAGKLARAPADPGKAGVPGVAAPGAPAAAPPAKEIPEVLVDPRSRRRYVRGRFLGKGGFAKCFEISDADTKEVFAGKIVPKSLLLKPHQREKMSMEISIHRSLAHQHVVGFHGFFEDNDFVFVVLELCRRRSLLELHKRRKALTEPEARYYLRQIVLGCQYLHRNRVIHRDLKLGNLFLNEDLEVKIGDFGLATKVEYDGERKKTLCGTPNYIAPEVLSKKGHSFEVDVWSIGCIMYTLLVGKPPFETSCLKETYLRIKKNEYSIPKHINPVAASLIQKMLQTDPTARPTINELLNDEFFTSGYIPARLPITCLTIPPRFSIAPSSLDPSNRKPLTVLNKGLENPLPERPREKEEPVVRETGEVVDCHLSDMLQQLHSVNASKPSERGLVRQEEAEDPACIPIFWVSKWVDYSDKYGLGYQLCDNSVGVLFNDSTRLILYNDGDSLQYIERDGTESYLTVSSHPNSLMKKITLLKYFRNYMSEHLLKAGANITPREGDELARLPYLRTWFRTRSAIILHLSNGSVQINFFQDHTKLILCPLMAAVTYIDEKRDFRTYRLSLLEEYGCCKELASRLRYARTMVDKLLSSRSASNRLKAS
# [15] = Permeability of the compound by PAMPA; assay type: ADME
# [16] = Inhibition of casein kinase 2
# [17] = Inhibition of PDGFR
# [18] = Cmax in CD1 mouse at 10 mg/kg, po administered as single dose by LC/MS/MS analysis; assay type: ADME, organism-based; parameters: dose 10 mg/kg, route oral; settings: in vivo
# [19] = target: Cyclin-dependent kinase 2/cyclin A (Homo sapiens, UniProt P24941); assay: Inhibition of CDK2/Cyclin A; assay type: protein-complex assay
# [20] = AUC (0 to infinity) in CD1 mouse at 10 mg/kg, po administered as single dose by LC/MS/MS analysis; assay type: ADME, organism-based; parameters: time infinity, dose 10 mg/kg, route oral; settings: plasma
# [21] = Terminal half life in CD1 mouse at 10 mg/kg, po administered as single dose by LC/MS/MS analysis; assay type: ADME, organism-based; parameters: dose 10 mg/kg, route oral; settings: in vivo, read-out: beta t1/2 (converted)
# Sequence of Serine/threonine-protein kinase Nek6 (Q9HC98 whole entry): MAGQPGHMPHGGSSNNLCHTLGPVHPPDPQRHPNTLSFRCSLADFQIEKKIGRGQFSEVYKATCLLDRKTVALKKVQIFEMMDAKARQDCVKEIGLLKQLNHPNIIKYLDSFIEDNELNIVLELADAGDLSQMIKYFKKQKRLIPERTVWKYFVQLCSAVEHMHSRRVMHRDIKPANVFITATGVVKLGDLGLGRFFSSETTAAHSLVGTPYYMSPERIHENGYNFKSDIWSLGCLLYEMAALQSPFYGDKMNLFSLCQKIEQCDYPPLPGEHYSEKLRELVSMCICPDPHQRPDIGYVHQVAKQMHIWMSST
SMILES,solubility [3],IC50 [5],IC50 [7],IC50 (A2780),IC50 [14],IC50 [19],further results
CN1CCN(c2ccc(OC(F)(F)F)c(Nc3ncc4c(n3)-c3c(c(C(N)=O)nn3CCF)CC4)c2)CC1,18 µM,> 10 µM,> 10 µM,0.014 µM,0.004 µM,> 10 µM,half-life [1]: 44.4 min; IC50 [2]: > 10 µM; solubility [4]: 2100 µg/mL; IC50 [6]: 0.216 µM; Vd [8]: 1.53 L/kg; bioavailability [9]: 2%; clearance [10]: 40.3 mL/min/kg; IC50 [11]: > 10 µM; AUC(0-inf) [12]: 10.2 µM·h; CLint scaled [13]: 56.1 mL/min/kg; Papp [15]: 50 ×10⁻⁶ cm/s; IC50 [16]: 0.134 µM; IC50 [17]: > 10 µM; Cmax [18]: 260 nM; AUC(0-inf) [20]: 0.192 µM·h
CN1C(C)(C)CC(Nc2ccc(OC(F)(F)F)c(Nc3ncc4c(n3)-c3c(c(C(N)=O)nn3C)CC4)c2)CC1(C)C,147 µM,> 10 µM,> 10 µM,1.75 µM,0.964 µM,3.02 µM,
Cn1nc(C(N)=O)c2c1-c1nc(Nc3cc(NC4CCNC4)ccc3OC(F)(F)F)ncc1CC2 (stereo not drawn),171 µM,0.762 µM,,2.22 µM,,0.414 µM,
CN1CCN(c2ccc(OC(F)(F)F)c(Nc3ncc4c(n3)-c3[nH]nc(C(N)=O)c3CC4)c2)CC1,12 µM,> 10 µM,> 10 µM,0.093 µM,0.004 µM,> 10 µM,
CCn1nc(C(N)=O)c2c1-c1nc(Nc3cc(N4CCN(C)CC4)ccc3OC(F)(F)F)ncc1CC2,21 µM,> 10 µM,> 10 µM,0.011 µM,0.006 µM,> 10 µM,
COCCn1nc(C(N)=O)c2c1-c1nc(Nc3cc(N4CCN(C)CC4)ccc3OC(F)(F)F)ncc1CC2,136 µM,> 10 µM,> 10 µM,0.075 µM,0.015 µM,> 10 µM,
CN1CCCC1CCNc1ccc(OC(F)(F)F)c(Nc2ncc3c(n2)-c2c(c(C(N)=O)nn2C)CC3)c1 (stereo not drawn),157 µM,0.429 µM,,2.56 µM,,0.969 µM,
CN1CCN(c2ccc(OC(F)(F)F)c(Nc3ncc4c(n3)-c3c(c(C(N)=O)nn3CCCl)CC4)c2)CC1,9 µM,> 10 µM,> 10 µM,0.031 µM,,2.01 µM,
Cn1nc(C(N)=O)c2c1-c1nc(Nc3cc(N)ccc3OC(F)(F)F)ncc1CC2,31 µM,1.28 µM,,1.07 µM,,1.18 µM,
CN1CCC(Nc2ccc(OC(F)(F)F)c(Nc3ncc4c(n3)-c3c(c(C(N)=O)nn3C)CC4)c2)CC1,> 225 µM,3.42 µM,,1.09 µM,,1.02 µM,
Cn1nc(C(N)=O)c2c1-c1nc(Nc3cc(N4CCN(C(=O)OC(C)(C)C)CC4)ccc3OC(F)(F)F)ncc1CC2,,0.768 µM,,1.29 µM,,1.13 µM,
Cn1nc(C(N)=O)c2c1-c1nc(Nc3ccccc3OC(F)(F)F)ncc1CC2,< 1 µM,0.206 µM,0.032 µM,6.41 µM,0.117 µM,1.76 µM,
Cn1nc(C(N)=O)c2c1-c1nc(Nc3cc([N+]4([O-])CC[N+](C)([O-])CC4)ccc3OC(F)(F)F)ncc1CC2 (stereo not drawn),48 µM,> 10 µM,> 10 µM,> 10 µM,2.68 µM,> 10 µM,
CN1CCN(c2ccc(OC(F)(F)F)c(Nc3ncc4c(n3)-c3c(c(C(N)=O)nn3C(c3ccccc3)(c3ccccc3)c3ccccc3)CC4)c2)CC1,< 1 µM,,,2.1 µM,> 10 µM,> 10 µM,

# Further lines, with some results ahead:
solubility [3],IC50 [5],IC50 [7],IC50 (A2780),IC50 [14],IC50 [19],SMILES,further results
133 µM,> 10 µM,> 10 µM,0.583 µM,0.033 µM,> 10 µM,Cn1nc(C(N)=O)c2c1-c1nc(Nc3cc(N4CCC(N5CCCC5)CC4)ccc3OC(F)(F)F)ncc1CC2,
> 225 µM,> 10 µM,,0.782 µM,,> 10 µM,Cn1nc(C(N)=O)c2c1-c1nc(Nc3cc(N4CC[N+](C)([O-])CC4)ccc3OC(F)(F)F)ncc1CC2,
85 µM,0.19 µM,,0.538 µM,,0.622 µM,Cn1nc(C(N)=O)c2c1-c1nc(Nc3cc(N4CCN(C(=O)N5CCNCC5)CC4)ccc3OC(F)(F)F)ncc1CC2,
33 µM,3.39 µM,,0.034 µM,,> 10 µM,CCN1CCN(c2ccc(OC(F)(F)F)c(Nc3ncc4c(n3)-c3c(c(C(N)=O)nn3C)CC4)c2)CC1,
95 µM,> 10 µM,> 10 µM,0.941 µM,0.025 µM,> 10 µM,CN1CCCN(c2ccc(OC(F)(F)F)c(Nc3ncc4c(n3)-c3c(c(C(N)=O)nn3C)CC4)c2)CC1,
8 µM,0.335 µM,0.182 µM,0.008 µM,,> 10 µM,C=Cn1nc(C(N)=O)c2c1-c1nc(Nc3cc(N4CCN(C)CC4)ccc3OC(F)(F)F)ncc1CC2,half-life [1]: 53.4 min; IC50 [2]: 0.336 µM; solubility [4]: > 3200 µg/mL; IC50 [6]: 0.226 µM; Vd [8]: 2.58 L/kg; bioavailability [9]: 29%; clearance [10]: 57.3 mL/min/kg; IC50 [11]: 2.38 µM; AUC(0-inf) [12]: 5.37 µM·h; CLint scaled [13]: 28.8 mL/min/kg; Papp [15]: 19.6 ×10⁻⁶ cm/s; half-life [21]: 155 min; IC50 [16]: 0.069 µM; IC50 [17]: 1.46 µM; Cmax [18]: 610 nM; AUC(0-inf) [20]: 2.15 µM·h
114 µM,> 10 µM,1.43 µM,0.03 µM,,> 10 µM,Cn1nc(C(N)=O)c2c1-c1nc(Nc3cc(N4CCNCC4)ccc3OC(F)(F)F)ncc1CC2,IC50 [2]: 0.595 µM; solubility [4]: 1100 µg/mL; IC50 [6]: 0.194 µM; IC50 [11]: > 10 µM; CLint scaled [13]: 6.9 mL/min/kg; Papp [15]: 7.22 ×10⁻⁶ cm/s; IC50 [16]: 0.059 µM; IC50 [17]: > 10 µM

# Source: ChEMBL document CHEMBL1268971, “4,5-Dihydro-1H-pyrazolo[4,3-h]quinazolines as potent and selective Polo-like kinase 1 (PLK1) inhibitors” (Bioorg Med Chem Lett, 2010)
